Results published in the supplement of paper PMC10307832.

How the values were obtained:
Test in all cases: relative viability (nuclei count vs DMSO), 5 days (fraction); higher = more cells survive
IU1-47 + Lapatinib = compound: CC1=CC(=C(N1C2=CC=C(C=C2)Cl)C)C(=O)CN3CCCCC3 [IU1-47] + CS(=O)(=O)CCNCc1ccc(-c2ccc3ncnc(Nc4ccc(OCc5cccc(F)c5)c(Cl)c4)c3c2)o1 [Lapatinib] (partner 2 µM)
Summary of the method: (§1)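 Relative viability was taken as the ratio of nuclei in treated wells to nuclei in vehicle wells. Lung cancer cell lines in 1536-well plates received compounds by pin tool one day after seeding, either one drug alone or a fixed anchor-drug dose plus five library-drug doses (not always all listed) in √10 steps. Nuclei were counted on 4× images after 5 days of treatment, and values are medians of duplicate plates.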

FG-4592 + Lapatinib = compound: Cc1nc(C(=O)NCC(=O)O)c(O)c2ccc(Oc3ccccc3)cc12 [FG-4592] + CS(=O)(=O)CCNCc1ccc(-c2ccc3ncnc(Nc4ccc(OCc5cccc(F)c5)c(Cl)c4)c3c2)o1 [Lapatinib] (partner 2 µM)
Summary of the method: as §1

FG-4592 + Alpelisib = compound: Cc1nc(C(=O)NCC(=O)O)c(O)c2ccc(Oc3ccccc3)cc12 [FG-4592] + Cc1nc(NC(=O)N2CCC[C@H]2C(N)=O)sc1-c1ccnc(C(C)(C)C(F)(F)F)c1 [Alpelisib] (partner 2 µM)
Summary of the method: as §1

IU1-47 + Pictilisib = compound: CC1=CC(=C(N1C2=CC=C(C=C2)Cl)C)C(=O)CN3CCCCC3 [IU1-47] + CS(=O)(=O)N1CCN(Cc2cc3nc(-c4cccc5[nH]ncc45)nc(N4CCOCC4)c3s2)CC1 [Pictilisib] (partner 1 µM)
Summary of the method: as §1

Cell Line	relative viability (IU1-47 + Lapatinib; first compound 0.08 µM)	relative viability (IU1-47 + Lapatinib; first compound 0.253 µM)	relative viability (IU1-47 + Lapatinib; first compound 0.8 µM)	relative viability (IU1-47 + Lapatinib; first compound 2.53 µM)	relative viability (IU1-47 + Lapatinib; first compound 8 µM)	relative viability (FG-4592 + Lapatinib; first compound 0.08 µM)	relative viability (FG-4592 + Lapatinib; first compound 0.253 µM)	relative viability (FG-4592 + Lapatinib; first compound 0.8 µM)	relative viability (FG-4592 + Lapatinib; first compound 2.53 µM)	relative viability (FG-4592 + Lapatinib; first compound 8 µM)	relative viability (FG-4592 + Alpelisib; first compound 0.08 µM)	relative viability (FG-4592 + Alpelisib; first compound 0.253 µM)	relative viability (FG-4592 + Alpelisib; first compound 0.8 µM)	relative viability (FG-4592 + Alpelisib; first compound 2.53 µM)	relative viability (FG-4592 + Alpelisib; first compound 8 µM)	relative viability (IU1-47 + Pictilisib; first compound 0.08 µM)	relative viability (IU1-47 + Pictilisib; first compound 0.253 µM)	relative viability (IU1-47 + Pictilisib; first compound 0.8 µM)	relative viability (IU1-47 + Pictilisib; first compound 2.53 µM)	relative viability (IU1-47 + Pictilisib; first compound 8 µM)
HCC-44	0.985	1.03	1.07	1.05	0.825	0.99	0.948	0.835	0.96	0.96	0.767	0.786	0.876	0.936	0.797	0.551	0.603	0.665	0.672	0.593
HCC-827	0.198	0.215	0.197	0.19	0.207	0.192	0.192	0.193	0.18	0.22	0.948	0.945	0.952	0.951	0.992	1.27	1.1	1.14	0.957	1.1
NCI-H2347	1.13	0.863	1.04	0.761	0.834	0.906	–	0.848	0.917	0.974	0.988	–	0.85	1.16	1.11	0.505	0.651	0.446	0.448	0.457
PC-14	0.273	0.32	0.407	0.304	0.304	0.365	0.317	0.345	0.336	0.298	0.979	1	0.988	0.855	0.956	0.896	0.706	0.673	0.82	0.437
NCI-H1651	0.735	0.743	0.913	–	0.943	0.744	0.883	0.741	0.826	0.706	0.925	0.888	1.03	0.95	0.816	0.526	0.575	0.573	–	0.468
HARA	0.849	0.817	0.884	0.694	0.563	0.677	0.719	–	0.728	0.667	0.805	0.728	–	0.945	0.827	0.407	0.504	0.371	0.509	0.336
NCI-H1650	0.755	0.717	0.935	0.57	0.351	0.637	0.704	0.544	0.677	0.78	–	–	–	–	–	0.634	0.587	0.682	0.295	0.27
NCI-H1395	0.968	0.96	1.08	–	0.892	1.19	0.935	–	0.967	0.662	0.973	0.914	–	0.896	0.693	0.597	0.65	0.569	–	0.433
LU99A	0.933	1.07	1.16	1.02	1	0.964	0.93	0.801	0.96	0.83	0.497	0.492	0.402	0.579	0.532	0.35	0.337	0.275	0.312	0.298
NCI-H1355	1.11	1.11	1.08	0.627	0.983	1.03	0.939	–	0.955	0.823	0.797	0.788	–	0.869	0.743	0.489	0.457	0.363	0.251	0.415
HCC-78	0.721	0.347	1	0.717	0.712	0.696	0.733	0.701	0.892	0.9	0.379	0.339	0.223	0.287	0.308	0.192	0.19	0.218	0.189	0.206
NCI-H1563	0.935	0.914	1.25	0.793	0.73	0.873	0.829	0.779	1.04	0.809	1.03	0.949	0.939	0.936	0.845	0.69	0.672	0.663	0.627	0.732
HCC-15	0.897	0.854	0.999	0.677	0.798	0.883	0.706	0.852	0.871	0.944	0.883	0.856	0.913	0.871	0.915	0.8	0.703	0.76	0.427	0.65
EKVX	0.214	0.27	0.199	0.214	0.219	0.226	0.213	0.195	0.278	0.375	0.786	0.858	0.932	0.79	0.932	0.555	0.549	0.459	0.487	0.463
NCI-H2087	1.07	1.27	1.16	0.725	0.967	0.888	0.943	1.37	1.1	1.15	1.11	0.956	1.11	1.05	1.03	0.884	0.865	1.11	0.452	0.83
LK-2	1.15	1.26	0.963	0.703	0.517	0.695	0.912	0.68	0.886	0.767	–	1.05	–	0.929	1.03	0.606	0.614	0.615	0.412	0.474
NCI-H1437	0.726	0.716	0.801	0.76	0.744	0.883	0.817	0.8	0.677	0.499	0.997	0.958	1.01	1.05	0.706	0.403	0.428	0.423	0.413	0.35
COR-L23	1.19	1.12	1.07	0.92	0.892	0.906	0.914	0.965	0.838	0.81	0.751	0.653	0.918	0.768	0.783	0.936	0.877	0.874	0.652	0.905

Cell Line	relative viability (IU1-47 + Lapatinib; first compound 0.08 µM)	relative viability (IU1-47 + Lapatinib; first compound 0.253 µM)	relative viability (IU1-47 + Lapatinib; first compound 0.8 µM)	relative viability (IU1-47 + Lapatinib; first compound 2.53 µM)	relative viability (IU1-47 + Lapatinib; first compound 8 µM)	relative viability (FG-4592 + Lapatinib; first compound 0.08 µM)	relative viability (FG-4592 + Lapatinib; first compound 0.253 µM)	relative viability (FG-4592 + Lapatinib; first compound 0.8 µM)	relative viability (FG-4592 + Lapatinib; first compound 2.53 µM)	relative viability (FG-4592 + Lapatinib; first compound 8 µM)	relative viability (FG-4592 + Alpelisib; first compound 0.08 µM)	relative viability (FG-4592 + Alpelisib; first compound 0.253 µM)	relative viability (FG-4592 + Alpelisib; first compound 0.8 µM)	relative viability (FG-4592 + Alpelisib; first compound 2.53 µM)	relative viability (FG-4592 + Alpelisib; first compound 8 µM)	relative viability (IU1-47 + Pictilisib; first compound 0.08 µM)	relative viability (IU1-47 + Pictilisib; first compound 0.253 µM)	relative viability (IU1-47 + Pictilisib; first compound 0.8 µM)	relative viability (IU1-47 + Pictilisib; first compound 2.53 µM)	relative viability (IU1-47 + Pictilisib; first compound 8 µM)
ABC-1	1.45	1.08	1.06	0.821	1.12	1.11	1.11	1.06	1.08	0.801	1.17	–	1.17	0.958	0.866	0.766	0.711	0.895	–	0.671
NCI-H838	0.922	0.889	1.23	1.01	0.888	0.976	1.02	0.901	0.822	0.966	0.877	0.933	0.98	1.01	0.816	0.391	0.462	0.485	0.436	0.425
A549	0.987	1.1	0.92	1.08	0.858	0.917	0.975	1.03	1.07	0.946	0.831	0.626	0.823	0.759	0.686	0.637	0.53	0.542	0.673	0.423
A-427	1.01	0.994	0.977	–	0.873	0.975	1.05	0.943	0.953	1.03	1.04	1.07	1.04	1.13	1.05	0.736	0.84	0.789	–	0.632
NCI-H1792	0.923	0.999	0.988	0.956	0.514	0.859	0.785	0.908	0.86	0.849	0.78	0.635	0.544	0.619	0.721	0.26	0.318	0.253	0.165	0.286
LCLC-97TM1	1.34	0.635	0.92	–	0.78	1.13	1.12	0.716	–	0.791	0.25	0.214	0.167	–	0.29	0.194	0.258	0.204	–	0.165
NCI-H1703	1.21	1.2	1.03	1.39	0.96	1.11	0.881	1.11	0.966	0.936	0.255	0.354	0.295	0.326	0.353	0.254	0.255	0.218	0.32	0.25
LCLC-103H	–	–	–	–	–	–	–	–	–	–	0.887	0.875	0.749	0.966	1.06	0.586	0.566	0.624	0.509	0.639
PC-3 [JPC-3]	0.47	0.46	0.509	–	0.461	0.446	0.419	0.362	0.402	0.439	0.966	0.972	1.1	1	1.03	0.756	0.745	0.852	–	0.734
BEN	0.723	0.816	1.09	0.617	0.633	0.495	0.507	0.555	0.822	0.475	0.831	0.807	0.753	0.965	0.701	0.644	0.566	0.583	0.41	0.594
NCI-H1666	0.613	0.658	0.621	0.584	0.508	0.617	0.519	0.485	0.519	0.456	0.866	0.862	0.953	0.886	0.644	0.436	0.452	0.455	0.448	0.407
LC-2-ad	1.09	0.928	0.836	1.25	1.04	0.913	0.915	0.94	0.904	1.05	0.799	0.842	0.865	0.943	0.926	0.428	0.509	0.427	0.423	0.45
SK-LU-1	0.857	0.967	0.82	0.822	0.839	0.774	0.717	0.776	0.988	0.88	1.02	0.925	1.07	–	0.917	0.668	0.728	0.578	0.58	0.382
ChaGo-K-1	–	–	–	–	–	–	–	–	–	–	–	–	–	–	–	0.753	0.758	0.62	0.457	0.43
COR-L 105	0.312	0.405	0.382	0.328	0.333	0.348	0.342	0.264	0.382	0.329	1.07	0.91	0.981	0.732	1.02	0.421	0.411	0.352	0.379	0.396
NCI-H1975	0.844	0.879	0.934	0.883	0.846	0.801	0.788	0.831	0.759	0.697	0.679	0.555	0.672	0.655	0.56	0.274	0.293	0.305	0.281	0.256
NCI-H441	–	–	–	–	–	–	–	–	–	–	0.849	0.704	0.853	0.878	0.519	0.483	0.486	0.464	0.504	0.43
